Common to all, as to conditions: mean±SEM; rat striatal and cortical tissues
In assay [1] the target is T1, dopamine transporter (DAT) (Rattus norvegicus, UniProt P23977).
T1 construct: from tissue; host or cells: rat striatal tissue
As to the kind of experiment: Dopamine transporter binding affinity in rat striatal tissue. The method, then: (§1) The binding affinities (mean±SEM) of compounds 1a, 1b, 1c, 1d, and 1e for the dopamine transporter (DAT), the serotonin transporter (5-HTT), and norepinephrine (NET) were evaluated in, respectively, rat striatal and cortical tissues according to methods described in Tamagnan et al., Advances in Neurology, Parkinson's Disease. 80: 91-103 (1999). The results are summarized in Table 1 below. β-CIT was run concurrently as a control.

For assay [2], the target named is T2, serotonin transporter (5-HTT) (Rattus norvegicus, UniProt P31652).
T2 construct: from tissue
As to the kind of experiment: Serotonin transporter binding affinity in rat tissue. Here is the method:
as §1

Assay [3] addresses T3, norepinephrine (NET) (Rattus norvegicus, UniProt Q63380).
T3 construct: from tissue
In words: Norepinephrine transporter binding affinity in rat tissue. Here is the method: as §1

Data on five compounds can be found in patent publication US20020111486A1, “Transition metal-cyclopentadienyl-tropane conjugates” (priority 1999, published 2002).

T2 sequence (P31652 whole entry): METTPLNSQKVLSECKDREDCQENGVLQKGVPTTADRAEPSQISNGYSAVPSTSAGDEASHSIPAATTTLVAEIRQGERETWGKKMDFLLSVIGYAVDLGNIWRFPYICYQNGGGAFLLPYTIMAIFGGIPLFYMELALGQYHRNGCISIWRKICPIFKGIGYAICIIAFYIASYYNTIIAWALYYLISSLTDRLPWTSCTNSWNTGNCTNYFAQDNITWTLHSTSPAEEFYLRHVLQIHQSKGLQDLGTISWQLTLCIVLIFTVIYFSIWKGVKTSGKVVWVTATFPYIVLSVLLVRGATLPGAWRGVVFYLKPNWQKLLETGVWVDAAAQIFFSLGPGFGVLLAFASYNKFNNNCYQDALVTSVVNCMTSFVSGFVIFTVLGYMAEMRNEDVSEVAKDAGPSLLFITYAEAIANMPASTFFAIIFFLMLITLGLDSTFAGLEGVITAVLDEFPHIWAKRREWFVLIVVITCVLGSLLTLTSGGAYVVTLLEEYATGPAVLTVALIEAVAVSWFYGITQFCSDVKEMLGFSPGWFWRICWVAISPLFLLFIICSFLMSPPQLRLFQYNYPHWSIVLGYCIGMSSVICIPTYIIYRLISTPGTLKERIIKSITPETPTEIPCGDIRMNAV
T3 sequence (Q63380 1-617): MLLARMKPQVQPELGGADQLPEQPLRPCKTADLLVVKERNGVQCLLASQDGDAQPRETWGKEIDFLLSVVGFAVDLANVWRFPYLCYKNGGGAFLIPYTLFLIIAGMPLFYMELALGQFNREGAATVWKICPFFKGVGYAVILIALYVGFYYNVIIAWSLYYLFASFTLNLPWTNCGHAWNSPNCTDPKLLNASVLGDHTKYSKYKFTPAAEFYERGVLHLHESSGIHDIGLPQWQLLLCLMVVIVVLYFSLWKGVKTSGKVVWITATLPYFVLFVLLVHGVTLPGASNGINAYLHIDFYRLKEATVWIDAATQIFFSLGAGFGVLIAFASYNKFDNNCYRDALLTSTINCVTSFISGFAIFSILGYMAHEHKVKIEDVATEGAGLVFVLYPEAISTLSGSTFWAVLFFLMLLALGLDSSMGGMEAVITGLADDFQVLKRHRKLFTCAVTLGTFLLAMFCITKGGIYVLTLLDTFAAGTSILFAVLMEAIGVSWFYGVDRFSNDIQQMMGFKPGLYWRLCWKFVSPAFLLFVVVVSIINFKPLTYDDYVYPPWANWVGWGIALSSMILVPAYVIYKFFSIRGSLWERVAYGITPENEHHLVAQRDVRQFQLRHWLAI
T1 sequence (P23977 whole entry): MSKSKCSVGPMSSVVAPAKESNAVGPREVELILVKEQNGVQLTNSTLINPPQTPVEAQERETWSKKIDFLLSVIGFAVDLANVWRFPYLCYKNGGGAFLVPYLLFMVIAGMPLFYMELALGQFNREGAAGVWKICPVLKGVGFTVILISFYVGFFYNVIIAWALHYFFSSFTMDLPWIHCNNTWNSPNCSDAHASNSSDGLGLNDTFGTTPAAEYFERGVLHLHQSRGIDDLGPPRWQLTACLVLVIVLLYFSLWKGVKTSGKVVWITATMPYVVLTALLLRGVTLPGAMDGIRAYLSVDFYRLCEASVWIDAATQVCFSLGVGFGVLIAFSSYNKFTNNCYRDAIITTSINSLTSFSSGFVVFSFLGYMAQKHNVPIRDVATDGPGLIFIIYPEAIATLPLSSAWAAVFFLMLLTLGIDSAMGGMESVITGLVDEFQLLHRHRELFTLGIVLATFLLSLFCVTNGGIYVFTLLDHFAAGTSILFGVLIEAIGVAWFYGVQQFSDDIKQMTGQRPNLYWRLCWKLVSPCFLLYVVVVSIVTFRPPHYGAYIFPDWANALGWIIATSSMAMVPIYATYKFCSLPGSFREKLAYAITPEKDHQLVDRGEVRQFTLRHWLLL

For “3-(4-Chlorophenyl)-8-(3-tricarbonylrhenatocyclopentadienyloxy-carbonylpropyl)-8-aza-bicyclo[3.2.1 ]octane-2-carboxylic acid methyl ester [Compound 1b]”, the Ki in assay [1] worked out at 4.18 ± 0.33 nM; in assay [2] it was 5.28 ± 0.21 nM; in assay [3], 74 ± 8.2 nM.

As for “3β-(4-Chlorophenyl)-8-(4-cyclopentadienyltricarbonyl rhenium-butyl)-8-azabicyclo[3.2.1 ]octane-2β-carboxylic acid methyl ester [Compound 1d]”, the inhibition constant Ki in assay [1] turned out to be 5.45 ± 0.64 nM; in assay [2], 1.14 ± 0.16 nM; in assay [3], 199 ± 30 nM.

Consider “8-Methyl-3β-[4 carbonyl -(cyclopentadienyltricarbonyl rhenium)-phenyl]-8-azabicyclo[3.2.1 ]octane-2β-carboxylic acid methyl ester [Compound 1c]”, for which the Ki is greater than 10000 nM in assay [1], greater than 10000 nM in assay [2] and greater than 30000 nM in assay [3].

Turning to `COC(=O)C1C(c2ccc(I)cc2)CC2CCC1N2C` (stereo not drawn) [β-CIT, β-Carbomethoxy-3β-(4-iodophenyl) tropane, reference compound], the Ki in assay [1] turned out to be 0.96 ± 0.15 nM; in assay [2], 0.46 ± 0.06 nM; in assay [3], 2.8 ± 0.4 nM.

“N-(4-oxo-4-tricarbonylcyclopentadienylrhenio)-2β-hydroxymethyl-3β-(4-chlorophenyl)-nortropane [Compound 1a]”: the Ki is 13 ± 1.8 nM in assay [1], 13.3 ± 1 nM in assay [2] and 74 ± 8.2 nM in assay [3].

As a reminder, the Ki is the dissociation constant of the complex between target and ligand, obtained from inhibition or displacement. The low end stands for tighter binding, the high end for weaker binding.
